Data on 60 molecules can be found in the METLIN SMRT retention time set (Domingo-Almenara et al. 2019).

This data set can be described thus: gradient 5% acetonitrile 3 min, to 50% in 2 min, to 85% in 15 min, held 3 min, 100 µL/min. To be noted: column: Zorbax Extend-C18 2.1 x 50 mm; eluents: water / acetonitrile, 0.1% formic acid. The method in brief:
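The system's dead and dwell volumes were 40 μL and 900 μL, with a Zorbax Extend-C18 column (2.1 × 50 mm, 1.8 μm) run at 100 μL/min in water and acetonitrile containing 0.1% formic acid each. Pure standards were analyzed in mixtures of ~100 molecules by HPLC–quadrupole time-of-flight mass spectrometry in positive and negative ionization mode. Retention time was assigned from computationally picked, manually inspected adduct peaks.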
As for `Cc1nc2cc3c(cc2n1CC(=O)NC1CCCc2ccccc21)OCCO3` (stereo not given), the RP-LC retention time worked out at 682 s.
With `Cc1ccc(-c2nc3cnccn3c2NCCC(=O)NCc2ccc(C)o2)cc1` the figure was 710 s; with `Cc1nc(Nc2ccc(F)cn2)sc1C(=O)NCCCc1ccccc1`, 883 s; with `Nc1cc(C2CCN(C(=O)c3cc4ccccc4[nH]3)CC2)no1`, 713 s.
Then `CCc1cc(C(=O)N2CCN(CC)CC2)nc2cc(-c3ccco3)nn12`, with 616 s.
With `CCN1C(=O)C2(CCN(S(=O)(=O)Cc3ccc(Cl)cc3)CC2)c2ccccc21` the figure was 1050 s; with `O=C(Cc1cccnc1)N1CCC[C@H]1c1nc(-c2ccccc2)n[nH]1`, 578 s; with `CSc1nsc(NN)n1`, 647 s.
In the case of `COc1ccc(CNC(=O)C2CC(=O)N(CCc3c[nH]c4ccc(Cl)cc34)C2)cc1` (stereo not given), the RP-LC retention time came out at 834 s.
With `CCn1ccc2cc(S(=O)(=O)N3CCCC(C(=O)NCCN4CCCCC4)C3)ccc21` (stereo not given) the figure was 668 s.
For `Cc1sc(C)c(S(=O)(=O)Nc2ccc(Cl)cc2)c1-c1cc(C(F)(F)F)on1`, the RP-LC retention time was 1210 s.
With `CC(C)CCNc1nc(-c2ccc(Cl)cc2)nc2ccccc12` the figure was 932 s; with `Cc1cc(C)cc(NC(=O)C2CCN(S(=O)(=O)c3c(C)nn(-c4ccccc4)c3C)CC2)c1`, 1060 s.
In the case of `O=C(NC1CCCC1)C1CCc2sc(C(=O)N3CCCCCC3)cc2C1` (stereo not given), the RP-LC retention time stood at 900 s.
The molecule `CCOc1ccc(N(C)S(=O)(=O)c2ccsc2C(=O)NC(C)CCc2ccccc2)cc1` (stereo not given) displayed an RP-LC retention time of 1260 s.
Then `O=C(CCC[C@@H]1[C@H]2CCCN3CCC[C@@H](CN1C(=O)COc1ccc(Cl)cc1)[C@@H]23)N1CCOCC1`, with 626 s.
`COc1ccc(N2C=C(C(=O)N3CCCC3)S(=O)(=O)c3ccc(F)cc32)cc1OC` came in with an RP-LC retention time of 758 s.
Molecule `COc1ccc(-c2csc(C)n2)cc1S(=O)(=O)N1CCN(c2cccc(Cl)c2)CC1` returned an RP-LC retention time of 1170 s.
Then `COc1cccc(CNC(=O)Cn2c(=O)c3cc(C4CC4)nn3c3ncccc32)c1`, with 742 s; and `CCCCOc1ccc(S(=O)(=O)N2CCN(c3nc(C)cc(N4CCOCC4)n3)CC2)cc1`, with 818 s.
In turn, `Cc1cc(CN2CCC(CNC(=O)C(=O)NCCC3=CCCCC3)CC2)c(C)o1` gave an RP-LC retention time of 607 s.
On to `C=CCn1c(=O)c2ccccc2n(Cc2nc(-c3ccc(Br)cc3)no2)c1=O`, for which the RP-LC retention time worked out at 1150 s.
Then `O=C(Cn1nc(Cc2cccnc2)c2ccccc2c1=O)NCCC1=CCCCC1`, with 663 s; and `CC(C)CCNC(=O)Cn1nc(S(=O)(=O)c2cccc(F)c2)ccc1=O`, with 757 s.
The molecule `CCCCNC(=O)C1CCCN(c2ccc(-c3ccc(C)c(C)c3)nn2)C1` (stereo not given) displayed an RP-LC retention time of 735 s.
Then `Cc1nc(-n2c(C)ccc2C)sc1C(=O)NC(C)C`, with 954 s; and `COc1ccc(Cl)cc1NC(=O)c1n[nH]c2ccccc12`, with 1010 s.
With `Cc1ccc(N2C(=O)C3N=NN(Cc4nc(-c5ccc(Cl)cc5)no4)C3C2=O)cc1` (stereo not given) the figure was 1070 s.
Consider `CCSc1nnc(-c2nn(C)c3c2CN(C(=O)c2c(F)cccc2Cl)CC3)n1C`, for which the RP-LC retention time is 768 s.
Consider `O=C(c1noc2c1CCc1sccc1-2)N1CCN(c2ccccn2)CC1`, for which the RP-LC retention time amounted to 673 s.
Then `O=C(NCc1nnnn1C1CCCCC1)OCc1ccccc1`, with 757 s; and `Cc1c(C(=O)NCCCN2CCCCC2)oc2ccc3c(c12)C(O)CC(C)(C)O3` (stereo not given), with 631 s; and `Cc1ccc(C)c(N2CCN(C(=O)c3cnc4ncnn4c3C)CC2)c1`, with 829 s.
Then `Cn1nccc1C(=O)N1CCCC1c1ccc(Cl)cc1` (stereo not given), with 817 s; and `c1ccc(COCCc2noc(C3CCCN3)n2)cc1` (stereo not given), with 614 s.
Then `CCN(CC)c1ccc(-c2noc(CN3CCSCC3)n2)cn1`, with 651 s.
`O=C(Cc1cccc(F)c1)N1CCCCC1c1nncn1CC1CC1` (stereo not given) yielded an RP-LC retention time of 677 s.
Then `Cc1sc(NC(=O)CCC2CCCCC2)nc1-c1ccc2c(c1)N(C)C(=O)CO2`, with 1290 s; and `CC1=C(c2ccc(C)cc2)S(=O)(=O)N=C1N1CCCN(C(=O)c2cccc(C)c2)CC1`, with 898 s; and `Cn1nc(C(=O)N2C[C@@H]3C[C@H](NC(=O)c4cccs4)[C@H]2C3)c2ccccc21`, with 778 s.
Then `COc1cc(CN2CCc3nc(N4CCC(C)CC4)ncc3C2)ccc1OC(C)C`, with 764 s.
Molecule `CSc1ncccc1C(=O)NCc1cc(-c2ccc3c(c2)OCCO3)on1` registered an RP-LC retention time of 748 s.
`CCC(C)NC(=O)c1cc(C)nc2ccc(F)cc12` (stereo not given) yielded an RP-LC retention time of 680 s.
With `Nc1nc(-c2ccc(Cl)cc2)nn1C(=O)Cc1ccc(Cl)cc1` the figure was 1170 s.
As for `Cc1sc(NC(=O)C(C)(C)C)nc1-c1ccc2c(c1)NC(=O)C(C)O2` (stereo not given), the RP-LC retention time turned out to be 908 s.
With `O=C(c1cc(-c2ccncc2)n[nH]1)N1CCC(C(=O)N2CCN(c3ccc(F)cc3)CC2)CC1` the figure was 611 s; with `Cc1cc(C(=O)N(C)C)c(C)n1-c1ccc(O)cc1`, 661 s.
Then `CN1CCN(C(=O)c2ccc(-c3nnc4ccc(NC(=O)C5CCC5)cn34)cc2)CC1`, with 587 s; and `Cc1nc2c(n1C)CN(C(=O)Cc1ccc(F)cc1)CC2`, with 582 s.
Then `CCC(C)NC(=O)C1CCN(S(=O)(=O)c2c(C)nn(-c3ccc(C)cc3)c2C)CC1` (stereo not given), with 683 s; and `Cc1ccc(F)cc1NC(=O)Cn1cnc2nc(N3CCCC(C(=O)NC4CC4)C3)sc2c1=O` (stereo not given), with 686 s; and `CCc1noc(C2CCCCN2Cc2nc(-c3cccnc3)no2)n1` (stereo not given), with 821 s.
The molecule `COc1nc2ccccc2nc1N1CCCC(C(=O)Nc2ccc(F)cc2F)C1` (stereo not given) displayed an RP-LC retention time of 1170 s.
Molecule `CCCC(NC(=O)Cc1cccs1)C(=O)Nc1nc2ccccc2[nH]1` (stereo not given) returned an RP-LC retention time of 692 s.
Then `O=C(CN1C(=O)c2cccc3cccc(c23)C1=O)NCc1ccc2c(c1)OCO2`, with 747 s.
Turning to `CCn1cc(CN2CCC(C(=O)NCC3CCCCC3)CC2)c2cc(OC)ccc21`, the RP-LC retention time is 736 s.
Then `CCCN1C(=O)c2cc(S(=O)(=O)NCc3cccs3)ccc2Oc2cccnc21`, with 988 s; and `O=C(NCc1ccsc1)NC(c1ccccc1)c1ccccc1`, with 863 s; and `COc1ccc(NC(=O)Cc2nnc(-c3ccc4ncccc4c3)o2)cc1Cl`, with 728 s.
On to `CN1C(=O)[C@H]2CN(Cc3cc(F)cc(F)c3)C[C@H]2C1=O`, for which the RP-LC retention time was 610 s.
